Test [1] in a line: Cytotoxicity against Homo sapiens (human) HCT cells assessed as cell viability at 3.125 ug/ml after 48 hr by MTT assay. It is filed as functional. Conditions: read-out: Activity. In general terms: Tetrazolium assays rely on reduction of a dye to a coloured formazan, in cell work by metabolically active cells.
Test [2] deals with MCF7. Nature of the test: Cytotoxicity against Homo sapiens (human) MCF7 cells assessed as cell viability at 6.25 ug/ml after 48 hr by MTT assay. It is filed as functional. The conditions noted are these: MCF7, 48 h, read-out: Activity.
Test [3] is described as follows: Cytotoxicity against Homo sapiens (human) HCT cells assessed as cell viability at 12.5 ug/ml after 48 hr by MTT assay. Conditions: read-out: Activity. It is filed as functional.
Test [4] relates to MCF7. As to the kind of experiment: Cytotoxicity against Homo sapiens (human) MCF7 cells assessed as cell viability at 3.125 ug/ml after 48 hr by MTT assay. It is filed as functional. Conditions: MCF7, 48 h, read-out: Activity.
Test [5] is described as follows: Cytotoxicity against Homo sapiens (human) HCT cells assessed as cell viability at 6.25 ug/ml after 48 hr by MTT assay. Type of test: functional. The conditions noted are these: read-out: Activity.
The test system of test [6] is HepG2. Nature of the test: Cytotoxicity against Homo sapiens (human) HepG2 cells assessed as cell viability at 3.125 ug/ml after 48 hr by MTT assay. It is filed as functional. Conditions: HepG2, 48 h, read-out: Activity.
The subject of test [7] is MCF7. As to the kind of experiment: Cytotoxicity against Homo sapiens (human) MCF7 cells assessed as cell viability at 1.56 ug/ml after 48 hr by MTT assay. Type of test: functional. The conditions noted are these: MCF7, 48 h, read-out: Activity.
Test [8] can be described thus: Cytotoxicity against Homo sapiens (human) HCT cells after 48 hr by MTT assay. It is filed as functional, cell-based.
Test [9] relates to MCF7. Nature of the test: Cytotoxicity against Homo sapiens (human) MCF7 cells assessed as cell viability at 50 ug/ml after 48 hr by MTT assay. The conditions noted are these: MCF7, 48 h, read-out: Activity. Type of test: functional.
A short description of test [10]: Cytotoxicity against Homo sapiens (human) HCT cells assessed as cell viability at 25 ug/ml after 48 hr by MTT assay. It is filed as functional. The conditions noted are these: read-out: Activity.
Test [11] deals with HepG2. As to the kind of experiment: Cytotoxicity against Homo sapiens (human) HepG2 cells assessed as cell viability at 50 ug/ml after 48 hr by MTT assay. Type of test: functional. The conditions noted are these: HepG2, 48 h, read-out: Activity.
In test [12] the test system is MCF7. Nature of the test: Cytotoxicity against Homo sapiens (human) MCF7 cells assessed as cell viability at 25 ug/ml after 48 hr by MTT assay. It is filed as functional. Conditions: MCF7, 48 h, read-out: Activity.
For test [13], the system named is MCF7. Nature of the test: Cytotoxicity against Homo sapiens (human) MCF7 cells assessed as cell viability at 12.5 ug/ml after 48 hr by MTT assay. Type of test: functional. The conditions noted are these: MCF7, 48 h, read-out: Activity.
For test [14], the system named is HepG2. Nature of the test: Cytotoxicity against Homo sapiens (human) HepG2 cells assessed as cell viability at 6.25 ug/ml after 48 hr by MTT assay. Type of test: functional. Conditions: HepG2, 48 h, read-out: Activity.
Test [15] has as its system HepG2. Nature of the test: Cytotoxicity against Homo sapiens (human) HepG2 cells assessed as cell viability at 12.5 ug/ml after 48 hr by MTT assay. It is filed as functional. The conditions noted are these: HepG2, 48 h, read-out: Activity.
Test [16] relates to HepG2. As to the kind of experiment: Cytotoxicity against Homo sapiens (human) HepG2 cells after 48 hr by MTT assay. Type of test: functional, cell-based. The conditions noted are these: HepG2, 48 h.
Test [17] can be described thus: Cytotoxicity against Homo sapiens (human) HCT cells assessed as cell viability at 1.56 ug/ml after 48 hr by MTT assay. It is filed as functional. Conditions: read-out: Activity.
The subject of test [18] is HepG2. Nature of the test: Cytotoxicity against Homo sapiens (human) HepG2 cells assessed as cell viability at 25 ug/ml after 48 hr by MTT assay. It is filed as functional. The conditions noted are these: HepG2, 48 h, read-out: Activity.
For test [19], the system named is HepG2. As to the kind of experiment: Cytotoxicity against Homo sapiens (human) HepG2 cells assessed as cell viability at 1.56 ug/ml after 48 hr by MTT assay. It is filed as functional. Conditions: HepG2, 48 h, read-out: Activity.
A short description of test [20]: Cytotoxicity against Homo sapiens (human) HCT cells assessed as cell viability at 50 ug/ml after 48 hr by MTT assay. Type of test: functional. Conditions: read-out: Activity.
Test [21] deals with MCF7. Nature of the test: Cytotoxicity against Homo sapiens (human) MCF7 cells after 48 hr by MTT assay. It is filed as functional, cell-based. The conditions noted are these: MCF7, 48 h.

Each structure is given as a SMILES string. In brackets after ≈: the same amount, converted by molar mass. Where only a bound is given, the exact number is not on record here.

One may read the IC50 as the concentration at which inhibition is half-maximal. On to `CCOC(=O)C1=C(N)Oc2c(ccc3ccc(/C=C/c4ccc(Br)cc4)nc23)C1c1ccc(Cl)cc1` (centres undefined), for which the figures for the viability at 3.125 µg/mL in test [1], in test [4] and in [6] were 66.2%, 57.9% and 49.6%, respectively. Moreover, the values for the viability at 6.25 µg/mL in test [2], in test [5] and in [14] were 45.5%, 48.1% and 39.3%, respectively. The viability at 12.5 µg/mL in test [3] worked out at 34.4%; in test [13], 41.6%; in test [15], 36.4%. The viability at 1.56 µg/mL came to 69.4% in [7], 72.1% in test [17] and 72.1% in [19]. The concentration for half-maximal inhibition (IC50) came out at 6.1 µg/mL (≈ 10.9 µM) in test [8], 3.1 µg/mL (≈ 5.52 µM) in [16] and 5.4 µg/mL (≈ 9.61 µM) in test [21]. Further, the viability at 50 µg/mL was determined as 25.6% in test [9], 14.6% in [11] and 17.6% in test [20]. Moreover, the viability at 25 µg/mL in [10] came out at 24.7%; in [12], 31%; in test [18] it was 22.9%.
Regarding `CCOC(=O)C1=C(N)Oc2c(ccc3ccc(/C=C/c4ccc(F)cc4)nc23)C1c1ccc(Br)cc1` (centres undefined), the viability at 3.125 µg/mL in [1] came to 98.5%; in [4], 93.9%; in test [6], 94.6%. The viability at 6.25 µg/mL in test [2] was determined as 85.5%; in test [5], 84.9%; in test [14], 83.3%. In addition, the viability at 12.5 µg/mL in test [3] came out at 78.7%; in [13], 74.6%; in test [15], 76.4%. Further, the viability at 1.56 µg/mL came to 99.3% in test [7], 100% in [17] and 97.1% in [19]. Moreover, the results for the IC50 in test [8], in test [16] and in test [21] were 26.1 µg/mL (≈ 47.9 µM), 37.1 µg/mL (≈ 68 µM) and 38.4 µg/mL (≈ 70.4 µM), respectively. Besides, the figures for the viability at 50 µg/mL in [9], in [11] and in test [20] were 37.6%, 34.6% and 17.4%, respectively. Moreover, the viability at 25 µg/mL in [10] was 53.7%; in test [12], 67%; in test [18], 62.9%.
Consider `N#CC1=C(N)Oc2c(ccc3ccc(/C=C/c4ccc(F)cc4)nc23)C1c1ccc(Cl)cc1` (centres undefined), for which the figures for the viability at 3.125 µg/mL in test [1], in [4] and in test [6] were 98.8%, 97.9% and 98.9%, respectively. In addition, the viability at 6.25 µg/mL in test [2] was 91.8%; in [5] it was 95.2%; in test [14], 96.2%. For the same compound, the viability at 12.5 µg/mL in test [3] was 86.9%; in test [13] it was 86.7%; in [15], 84.6%. For the same compound, the viability at 1.56 µg/mL came to 99.3% in test [7], 100% in [17] and 100% in [19]. The half-inhibitory concentration (IC50) in test [8] was 43.8 µg/mL (≈ 96.5 µM); in test [16], over 50 µg/mL; in test [21] it was 38.6 µg/mL (≈ 85 µM). Besides, the viability at 50 µg/mL came out at 28.5% in test [9], 56.4% in test [11] and 41.3% in test [20]. For the same compound, the viability at 25 µg/mL in [10] amounted to 62.5%; in [12], 79.4%; in test [18] it was 78.3%.
In the case of `N#CC1=C(N)Oc2c(ccc3ccc(/C=C/c4ccc(Cl)cc4)nc23)C1c1ccc(Br)cc1` (centres undefined), the viability at 3.125 µg/mL in test [1] was determined as 72.5%; in test [4] it was 83.1%; in test [6] it was 87.9%. The viability at 6.25 µg/mL in [2] was 61.8%; in [5], 69.8%; in [14], 77.2%. Moreover, the viability at 12.5 µg/mL amounted to 47.8% in [3], 50.3% in test [13] and 69.6% in [15]. The viability at 1.56 µg/mL in test [7] is 98.5%; in test [17], 80.4%; in [19], 94.6%. Further, the IC50 came out at 11.9 µg/mL (≈ 23.1 µM) in test [8], 23.2 µg/mL (≈ 45.1 µM) in test [16] and 12.5 µg/mL (≈ 24.3 µM) in test [21]. The viability at 50 µg/mL worked out at 32.4% in test [9], 33.8% in [11] and 27.4% in [20]. For the same compound, the viability at 25 µg/mL was 34.2% in test [10], 39.9% in test [12] and 44.9% in test [18].

For the origin of these results see ChEMBL document CHEMBL3045245, “Synthesis and antitumor activities of certain novel 2-amino-9-(4-halostyryl)-4H-pyrano[3,2-h]quinoline derivatives” (Med Chem Res, 2012).
